Results from patent US20140249191A1, “Compositions for Controlling Vascularization in Ophthalmological and Dermatological Diseases” (AVIENNE PHARMACEUTICALS GMBH, priority 2011, published 2014).
Entries after “also recorded” stand apart in the source; their conditions may differ.

How the values were obtained:
[1] = system: SAOS-2, Hela, HT29, U87MG and SK-N-DZ cells; experiment: Cytotoxic activity in cancer cell lines (cell numbers); format: cell-based; details: up to 20 μM; uncoated dishes or coated with vitronectin or fibrinogen
Method: For example, cytotoxic activity of AV-398 was determined in several cancer cell lines (SAOS-2, Hela, HT29, U87MG and SK-N-DZ cells) by assessing cell numbers after treating cell lines with varying concentration of up to 20 μM. Experiments were performed either on uncoated dishes, or on dishes coated with vitronectin or fibrinogen. In addition, tumor cell lines were treated in parallel with echistatin (Gan Z R et al (1998)). […] Similar data were recently published showing cytotoxic activity also only against MDA-MB-435 breast cancer cells (Dayam R et al, 2006).

[2] = system: chorioallantoic membrane vascularisation; experiment: Chorioallantoic membrane (CAM) assay; format: in vivo, chicken embryo; details: applied on CAM day 6 p.f., incubated until day 11 p.f.
Description: Local Application of AV-398 inhibits in vivo angiogenesis as evidenced by the chicken egg chorioallantoic membrane model. The chorioallantoic membrane (CAM) of the developing chicken embryo serves as an alternative to the traditional mammalian in vivo models, and further corroborates the findings in pigs described above and has clear relevance for the treatment e.g. dermatological indications linked to neoangiogenesis. AV-398 was applied over 5 days.
Eggs were opened on day 6 post fertilization (p.f.). Substances (200 μl respectively) were applied on the CAM on day 6 p.f. and incubated until day 11 p.f. As a vehicle control, 1% DMSO in PBS (phosphate-buffered saline solution pH 7.4) without AV-398 was used. Eggs were inspected daily by stereo-microscopy and pictures were taken (6× magnification).

ocular angiogenesis = experiment: Conjunctival incision ocular angiogenesis model; format: in vivo, white pigs; details: pigs, eye drops 100 μg/ml
Description: AV-398 inhibits ocular angiogenesis in vivo in a widely accepted large animal model. The cornea is an ideal model system for angiogenesis in general, and more specifically for angiogenesis of the eye. The corneal angiogenesis assay is one of the most widely used in vivo assay for the evaluation of factors influencing angiogenesis (Auerbach R, 2003, Thiele W, 2006). One reason that makes the cornea an ideal object for observing neovascularisation is its normal lack of vascularity, maintained by different molecular mechanisms. New vessels can easily be identified by visual inspection alone and quantified with the help of computerized image analysis programs. The effect of an ophthalmological formulation of AV-398 after a conjunctival insult with subsequent angiogenesis in a large animal model was investigated in order to test whether the in vitro data, such as anti-proliferative effects on human endothelial cells, could be reproduced in vivo. Six white pigs weighing 10 to 15 kg were included. First, corneae and conjunctivae were anaesthesized by local application of lidocaine 4%. Then, an incision of 0.5 cm length through the conjunctival tunica sclerae to the substantia propria was placed in parallel to the dorsal corneal limbus at a distance of approximately 2 mm. The animals were treated as follows. […]

[3] = system: endothelial cells of different origin (lung, lymphatics and umbilical); experiment: Endothelial cell proliferation assay (direct cell counting); format: cell-based, human
Method: Primary endothelial cell lines (HMVEC-dLyAd—human dermal lymphatic microvascular endothelial cells (EC), dermal blood microvascular EC, HMVEC-LB lung blood microvascular EC, HMVEC-C cardiac human microvascular endothelial cells and MVEC-d—dermal microvascular EC) are from Cambrex Bio Science (Cambrex Bio Science Walkersville Inc., Walkersville, Md., USA). Cell lines are cultured according to the manufacturer's recommendations.
For proliferation assays, cells are seeded in 24- to 96-well plates in medium at different concentrations according to the cell type. After 24 hours, the medium is removed and replaced with fresh medium containing increasing concentrations of the compounds. The plates are then incubated for additional 24 to 72 hours, depending on the type of the experiment. Cells are then trypsinized and collected for direct counting. Results are plotted and expressed as means (±SE) for each compound and for a given concentration.

αvβ3-receptor = αvβ3-receptor (Homo sapiens, UniProt P05106+P06756); details: Dayam et al, 2006; cited from earlier work
αvβ3-receptor, sequence (P06756 31-889 limits assumed): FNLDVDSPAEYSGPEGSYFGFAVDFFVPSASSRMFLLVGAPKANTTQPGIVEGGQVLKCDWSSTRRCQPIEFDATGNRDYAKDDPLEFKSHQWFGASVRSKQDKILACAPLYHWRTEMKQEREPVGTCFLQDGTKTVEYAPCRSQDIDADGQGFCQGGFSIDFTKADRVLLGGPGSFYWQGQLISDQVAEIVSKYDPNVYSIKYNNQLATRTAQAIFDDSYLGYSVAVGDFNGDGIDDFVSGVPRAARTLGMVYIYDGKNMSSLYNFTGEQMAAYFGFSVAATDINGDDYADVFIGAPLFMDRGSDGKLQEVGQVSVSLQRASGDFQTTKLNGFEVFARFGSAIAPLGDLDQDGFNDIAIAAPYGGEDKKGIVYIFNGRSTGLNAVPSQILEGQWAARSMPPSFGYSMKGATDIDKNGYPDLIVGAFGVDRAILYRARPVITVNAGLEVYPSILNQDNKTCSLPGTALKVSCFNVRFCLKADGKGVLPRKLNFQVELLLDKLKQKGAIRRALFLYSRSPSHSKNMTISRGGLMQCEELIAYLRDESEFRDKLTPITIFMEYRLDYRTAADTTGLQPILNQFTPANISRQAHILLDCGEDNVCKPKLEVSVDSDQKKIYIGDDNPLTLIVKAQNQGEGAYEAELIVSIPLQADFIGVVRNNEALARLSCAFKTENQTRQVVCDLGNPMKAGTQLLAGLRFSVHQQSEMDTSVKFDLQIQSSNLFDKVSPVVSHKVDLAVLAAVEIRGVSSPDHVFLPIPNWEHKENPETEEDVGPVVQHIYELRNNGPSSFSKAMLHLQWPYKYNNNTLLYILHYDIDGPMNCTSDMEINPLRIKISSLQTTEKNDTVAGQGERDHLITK
αvβ3-receptor, sequence (P06756 891-1048 partner limits assumed): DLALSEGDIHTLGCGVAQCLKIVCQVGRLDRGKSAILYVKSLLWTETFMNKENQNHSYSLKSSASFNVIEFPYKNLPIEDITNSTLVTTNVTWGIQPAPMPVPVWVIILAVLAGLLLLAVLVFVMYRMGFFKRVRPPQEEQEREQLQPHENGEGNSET
αvβ3-receptor, sequence (P05106 27-788): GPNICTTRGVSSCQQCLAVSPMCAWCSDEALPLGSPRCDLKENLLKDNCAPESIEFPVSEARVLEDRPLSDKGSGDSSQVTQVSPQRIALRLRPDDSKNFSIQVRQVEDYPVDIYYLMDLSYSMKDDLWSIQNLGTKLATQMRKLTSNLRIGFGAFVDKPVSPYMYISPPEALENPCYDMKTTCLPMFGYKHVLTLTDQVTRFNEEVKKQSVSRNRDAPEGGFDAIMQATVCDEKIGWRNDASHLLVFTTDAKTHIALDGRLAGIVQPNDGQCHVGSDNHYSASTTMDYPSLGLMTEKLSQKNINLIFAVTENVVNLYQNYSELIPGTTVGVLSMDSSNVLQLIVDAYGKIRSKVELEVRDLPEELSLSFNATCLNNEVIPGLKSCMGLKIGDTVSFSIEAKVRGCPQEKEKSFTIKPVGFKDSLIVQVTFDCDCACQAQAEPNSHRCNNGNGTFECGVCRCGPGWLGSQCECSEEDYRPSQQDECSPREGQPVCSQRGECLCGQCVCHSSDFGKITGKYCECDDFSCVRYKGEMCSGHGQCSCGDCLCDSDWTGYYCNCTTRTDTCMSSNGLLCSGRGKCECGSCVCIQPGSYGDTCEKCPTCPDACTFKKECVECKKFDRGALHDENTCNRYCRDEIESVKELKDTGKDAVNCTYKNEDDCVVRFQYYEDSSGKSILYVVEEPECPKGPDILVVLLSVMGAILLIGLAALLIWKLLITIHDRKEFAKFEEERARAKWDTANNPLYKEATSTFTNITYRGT

With `CCOc1cc(C=C2S/C(=N/c3ccc(C(=O)O)cc3)N(C)C2=O)ccc1O` (stereo in doubt) [AV-398, 4-({5-[(E)-1-(3-ethoxy-4-hydroxyphenyl)methylidene]-3-methyl-4-oxo-1,3-thiazolan-2-yliden}amino)benzoic acid] the “effects on cancer cell lines (cytotoxic activity)” value [1] was “no meanigful effects”, the “vascularisation of chicken embryo CAM versus vehicle control” value [2] was “markedly decreased vascularisation; also recorded: significant reduction of vascularisation” and the “bleeding surrounding the incision immediately after treatment” value (ocular angiogenesis) was “marked diffuse bleeding”. The “neoangiogenesis on treated conjunctivae versus control-treated eyes” value (ocular angiogenesis; topical after incision) was “diminished neoangiogenesis”, the “antiproliferative effect against endothelial cells” value [3] was “strong antiproliferative effect” and the avβ3 binding affinity (αvβ3-receptor) was 240 nM.
